Test results from patent US20220089592A1, “IMIDAZO[1,2-A]PYRIDINYL DERIVATIVES AS IRAK4 INHIBITORS” (priority 2019, published 2022).

Columns and labels:
IRAK4 [1] = target: T1, IRAK4 (Homo sapiens, UniProt Q9NWZ3); experiment: 2-hour 10 μM ATP Biochemical Assay (MesoScale Detection format; IRAK4 phosphorylation of biotin labeled IRAK1 activation loop peptide); conditions: IRAK4 MSD BIOCHEMICAL (10 μM ATP) IC50 (μM), 1 nM IRAK4, 2 hours
T1 sequence (Q9NWZ3 1-460): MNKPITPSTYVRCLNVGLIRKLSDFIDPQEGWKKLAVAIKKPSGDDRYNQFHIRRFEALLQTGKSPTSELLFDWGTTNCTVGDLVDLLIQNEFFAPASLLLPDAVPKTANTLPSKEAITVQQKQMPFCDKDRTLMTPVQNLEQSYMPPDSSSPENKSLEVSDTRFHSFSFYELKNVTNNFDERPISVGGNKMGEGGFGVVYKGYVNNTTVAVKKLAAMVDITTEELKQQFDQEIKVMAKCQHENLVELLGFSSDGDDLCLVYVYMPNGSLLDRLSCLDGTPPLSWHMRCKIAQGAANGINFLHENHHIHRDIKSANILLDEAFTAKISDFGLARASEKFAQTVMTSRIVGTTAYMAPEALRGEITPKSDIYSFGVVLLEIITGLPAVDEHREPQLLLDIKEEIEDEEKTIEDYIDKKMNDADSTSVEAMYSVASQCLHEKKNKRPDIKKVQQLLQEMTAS
How it was run: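 Kinase reaction run 2 h at 10 μM ATP with biotinylated IRAK1 activation-loop peptide, quenched with EDTA. Phospho-peptide captured on streptavidin MSD plates and detected with anti-phosphothreonine rabbit antibody plus Sulfo-Tag anti-rabbit electrochemiluminescence.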

IRAK4 [2] = target: T1, IRAK4; experiment: 2-hour 1 mM ATP IRAK4 Biochemical assay (as above, but with 100 pM IRAK4 and 1 mM ATP); conditions: IRAK4 MSD BIOCHEMICAL (1 mM ATP) IC50 (μM), 100 pM IRAK4, 2 hours
How it was run: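 Run with 100 pM IRAK4 and 1 mM ATP for 2 hours, quenched with EDTA pH 8. Phosphorylated biotinylated peptide captured on streptavidin MSD plates and detected with anti-phosphothreonine antibody plus Sulfo-Tag secondary by electrochemiluminescence.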

SMILES | IC50 (IRAK4 [1]) | IC50 (IRAK4 [2])
CCOc1cc2nc(C3CC3)cn2cc1NC(=O)c1cccc(C2CCOC2)n1 (stereo not shown) [Example 238, N-(2-cyclopropyl-7-ethoxyimidazo[1,2-a]pyridin-6-yl)-6-(tetrahydrofuran-3-yl)picolinamide] | 0.004 µM | 0.015 µM
CCOc1cc2nc(COc3ccccn3)cn2cc1NC(=O)c1cccc(C(F)F)n1 [Example 86, 6-(difluoromethyl)-N-(7-ethoxy-2-((pyridin-2-yloxy)methyl)imidazo[1,2-a]pyridin-6-yl)picolinamide] | 0.006 µM | 0.008 µM
CCOc1cc2nc(C3CCN(C(C)=O)CC3)cn2cc1NC(=O)c1cccc(C(F)(F)F)n1 [Example 72, N-(2-(1-acetylpiperidin-4-yl)-7-ethoxyimidazo[1,2-a]pyridin-6-yl)-6-(trifluoromethyl)picolinamide] | 0.001 µM | 0.001 µM
CCOc1cc2nc(C3CCOCC3)cn2cc1NC(=O)c1ccn(C(F)F)n1 [Example 230, 1-(difluoromethyl)-N-(7-ethoxy-2-(tetrahydro-2H-pyran-4-yl)imidazo[1,2-a]pyridin-6-yl)-1H-pyrazole-3-carboxamide] | 0.001 µM | 0.003 µM
CCOc1cc2nc(C34CC(OC)(C3)C4)cn2cc1NC(=O)c1cccc(C(F)F)n1 [Example 153, 6-(difluoromethyl)-N-(7-ethoxy-2-(3-methoxybicyclo[1.1.1]pentan-1-yl)imidazo[1,2-a]pyridin-6-yl)picolinamide] | 0.001 µM | 0.001 µM
CCOc1cc2nc([C@@H](O)C3CC3)cn2cc1NC(=O)c1cccc(C(F)(F)F)n1 (single isomer, unassigned) [Example 169] | 0.003 µM | 0.009 µM
CCOc1cc2nc(C3CCOCC3)cn2cc1NC(=O)c1cccc(OC)c1F [Example 215, N-(7-ethoxy-2-(tetrahydro-2H-pyran-4-yl)imidazo[1,2-a]pyridin-6-yl)-2-fluoro-3-methoxybenzamide] | 0.008 µM | 0.037 µM
CCOc1cc2nc(C3CN(C(C)=O)C3)cn2cc1NC(=O)c1cccc(C(F)(F)F)n1 [Example 68, N-(2-(1-acetylazetidin-3-yl)-7-ethoxyimidazo[1,2-a]pyridin-6-yl)-6-(trifluoromethyl)picolinamide] | 0.001 µM | 0.001 µM
CCOc1cc2nc([C@H](O)C3CC3)cn2cc1NC(=O)c1cccc(C(F)(F)F)n1 (single isomer, unassigned) [Example 170] | 0.004 µM | 0.012 µM
O=C1CC[C@@H](CCOc2cc3nc(C4CC4)cn3cc2NC(=O)c2cccc(C(F)F)n2)N1 [Example 73, (S)—N-(2-cyclopropyl-7-(2-(5-oxopyrrolidin-2-yl)ethoxy)imidazo[1,2-a]pyridin-6-yl)-6-(difluoromethyl)picolinamide] | 0.011 µM | 0.032 µM
CCOc1cc2nc(C3CCOCC3)cn2cc1NC(=O)c1ccn(CC)n1 [Example 205, N-(7-ethoxy-2-(tetrahydro-2H-pyran-4-yl)imidazo[1,2-a]pyridin-6-yl)-1-ethyl-1H-pyrazole-3-carboxamide] | 0.003 µM | 0.012 µM
CCOc1cc2nc(C3(F)CC3)cn2cc1NC(=O)c1cccc(C(F)F)n1 [Example 111, 6-(difluoromethyl)-N-(7-ethoxy-2-(1-fluorocyclopropyl)imidazo[1,2-a]pyridin-6-yl)picolinamide] | 0.002 µM | 0.003 µM
CCOc1cc2nc(C3CCOCC3)cn2cc1NC(=O)c1cccc(C(F)F)c1 [Example 228, 3-(difluoromethyl)-N-(7-ethoxy-2-(tetrahydro-2H-pyran-4-yl)imidazo[1,2-a]pyridin-6-yl)benzamide] | 0.013 µM | 0.056 µM
CCOc1cc2nc(C3CC34CCOC4)cn2cc1NC(=O)c1cccc(C(F)F)n1 (mixture of isomers) [Example 171, 6-(difluoromethyl)-N-(7-ethoxy-2-(5-oxaspiro[2.4]heptan-1-yl)imidazo[1,2-a]pyridin-6-yl)picolinamide] | 0.002 µM | 0.004 µM
CCOc1cc2nc(C3CCOCC3)cn2cc1NC(=O)c1scc2c1OCCO2 [Example 221, N-(7-ethoxy-2-(tetrahydro-2H-pyran-4-yl)imidazo[1,2-a]pyridin-6-yl)-2,3-dihydrothieno[3,4-b][1,4]dioxine-5-carboxamide] | 0.001 µM | 0.011 µM
CC1(COc2cc3nc(C4CCOCC4)cn3cc2NC(=O)c2cccc(C(F)(F)F)n2)COC1 [Example 166, N-(7-((3-methyloxetan-3-yl)methoxy)-2-(tetrahydro-2H-pyran-4-yl)imidazo[1,2-a]pyridin-6-yl)-6-(trifluoromethyl)picolinamide] | 0.002 µM | 0.009 µM
CCOc1cc2nc(C3CC3)cn2cc1NC(=O)c1cccc(OC)n1 [Example 117, N-(2-cyclopropyl-7-ethoxyimidazo[1,2-a]pyridin-6-yl)-6-methoxypicolinamide] | 0.027 µM | 0.063 µM
CCOc1cc2nc(C3CN(C4COC4)C3)cn2cc1NC(=O)c1cccc(C(F)F)n1 [Example 79, 6-(difluoromethyl)-N-(7-ethoxy-2-(1-(oxetan-3-yl)azetidin-3-yl)imidazo[1,2-a]pyridin-6-yl)picolinamide] | 0.001 µM | 0.001 µM
CCOc1cc2nc(C(C)C3CCOC3)cn2cc1NC(=O)c1cccc(C(F)(F)F)n1 (single isomer, unassigned) [Example 139] | 0.001 µM | 0.001 µM
CCOc1cc2nc(C(F)C3CCOC3)cn2cc1NC(=O)c1cccc(C(F)(F)F)n1 (single isomer, unassigned) [Example 144] | 0.001 µM | 0.001 µM
